Test results as given in PubChem BioAssay AID248 (DTP/NCI, 2004).
Values joined by “and” are separate entries in the source; they are usually repeats but may differ in a detail not shown here. Equal values may be shown once. Toxic doses and inconclusive results are not listed. Cut-off read from the data, not from the text of the source: active = T/C of 150% or more; inactive = T/C below 125%.

System: L1210 leukemia ip in BDF1 mice, survival T/C
Test: NCI In Vivo Anticancer Drug Screen. Data for tumor model L1210 Leukemia (intraperitoneal) in B6D2F1 (BDF1) mice
Conditions: endpoint: mean survival time, higher = longer survival
In short: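 Ratio derived from survival: compound-dosed mice over vehicle-dosed mice, all bearing a transplantable tumor.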

[1] = dose: 100.0 mg/kg/injection, schedule: Q01DX009 (ip), vehicle: saline with Tween-80
[2] = dose: 200.0 mg/kg/injection, schedule: Q01DX009 (ip), vehicle: saline with Tween-80
[3] = dose: 400.0 mg/kg/injection, schedule: Q01DX009 (ip), vehicle: saline with Tween-80
[4] = dose: 100.0 mg/kg/injection, schedule: Q01DX001 (ip), vehicle: carboxymethylcellulose (CMC)
[5] = dose: 100.0 mg/kg/injection, schedule: Q04DX003 (ip), vehicle: saline
[6] = dose: 200.0 mg/kg/injection, schedule: Q01DX001 (ip), vehicle: carboxymethylcellulose (CMC)
[7] = dose: 400.0 mg/kg/injection, schedule: Q01DX001 (ip), vehicle: carboxymethylcellulose (CMC)
[8] = dose: 200.0 mg/kg/injection, schedule: Q04DX003 (ip), vehicle: saline

Measured: T/C

N#Cc1c(Oc2ccccc2)c(F)c(Oc2ccccc2)c(F)c1Oc1ccccc1
inactive: [1] 100 % of control | [2] 91 % of control | [3] 92 % of control

Brc1ccc([Si](c2ccccc2)(c2ccccc2)c2ccc(Br)cc2)cc1
inactive: [1] 101 % of control | [2] 93 % of control | [3] 89 % of control

C[C@]12CC[C@@H]3c4ccc(O)cc4CC[C@H]3[C@@H]1C[C@@H](O)[C@@H]2O
inactive: dose: 25.0 mg/kg/injection, schedule: Q01DX001 (sc), vehicle: steriod suspending solution 104 % of control | dose: 50.0 mg/kg/injection, schedule: Q01DX001 (sc), vehicle: steriod suspending solution 107 % of control | dose: 100.0 mg/kg/injection, schedule: Q01DX001 (sc), vehicle: steriod suspending solution 109 % of control | dose: 125.0 mg/kg/injection, schedule: Q04DX003 (sc), vehicle: steriod suspending solution 100 % of control | dose: 200.0 mg/kg/injection, schedule: Q01DX001 (sc), vehicle: steriod suspending solution 106 % of control | dose: 250.0 mg/kg/injection, schedule: Q04DX003 (sc), vehicle: steriod suspending solution 105 % of control | dose: 500.0 mg/kg/injection, schedule: Q04DX003 (sc), vehicle: steriod suspending solution 100 % of control

COc1ccc(C(O)c2cc(-c3ccncc3)c(C(O)c3ccc(OC)cc3)nn2)cc1 (stereo not given)
inactive: dose: 100.0 mg/kg/injection, schedule: Q04DX003 (ip), vehicle: gum acacia 94 % of control | dose: 200.0 mg/kg/injection, schedule: Q04DX003 (ip), vehicle: gum acacia 96 % of control | dose: 400.0 mg/kg/injection, schedule: Q04DX003 (ip), vehicle: gum acacia 88 % of control

C=C(NC(=O)C(=C)NC(=O)c1csc(C2=NC3c4csc(n4)C4NC(=O)c5csc(n5)C(C(C)(O)C(C)O)NC(=O)C5CSC(=N5)/C(=C/C)NC(=O)C(C(C)O)NC(=O)c5csc(n5)C3(CC2)NC(=O)C(C)NC(=O)C(=C)NC(=O)C(C)NC(=O)C(C(C)CC)NC2C=Cc3c(C(C)O)cc(nc3C2O)C(=O)OC4C)n1)C(N)=O (stereo not given)
inactive: [4] 110 % of control | [5] 113 % of control | dose: 178.0 mg/kg/injection, schedule: Q01DX001 (ip), vehicle: saline 117 % of control | [6] 112 % of control | [7] 112 % of control

CC(=O)OCC1OC(n2cnc3c(=O)[nH]c(N)nc32)C(OC(C)=O)C1OC(C)=O (stereo not given)
inactive: dose: 100.0 mg/kg/injection, schedule: Q01DX005 (ip), vehicle: saline 91 % of control | dose: 200.0 mg/kg/injection, schedule: Q01DX005 (ip), vehicle: saline 102 % of control and 109 % of control

O=CNc1ccc2c(c1)Cc1cc(Cl)ccc1-2
inactive: dose: 30.0 mg/kg/injection, schedule: Q01DX015 (ip), vehicle: carboxymethylcellulose (CMC) 97 % of control | dose: 60.0 mg/kg/injection, schedule: Q01DX015 (ip), vehicle: carboxymethylcellulose (CMC) 106 % of control | dose: 120.0 mg/kg/injection, schedule: Q01DX015 (ip), vehicle: carboxymethylcellulose (CMC) 97 % of control

CC1CN(Cc2ccccc2)CC(C)N1 (stereo not given)
inactive: dose: 25.0 mg/kg/injection, schedule: Q01DX009 (ip), vehicle: water 95 % of control | dose: 50.0 mg/kg/injection, schedule: Q01DX009 (ip), vehicle: water 95 % of control | dose: 100.0 mg/kg/injection, schedule: Q01DX009 (ip), vehicle: water 104 % of control | dose: 100.0 mg/kg/injection, schedule: Q04DX003 (ip), vehicle: water 110 % of control | dose: 200.0 mg/kg/injection, schedule: Q04DX003 (ip), vehicle: water 115 % of control

CC(C)CNC(=O)Nc1ccccc1C(F)(F)F
inactive: dose: 100.0 mg/kg/injection, schedule: Q04DX003 (ip), vehicle: saline with Tween-80 95 % of control | dose: 200.0 mg/kg/injection, schedule: Q04DX003 (ip), vehicle: saline with Tween-80 97 % of control | dose: 400.0 mg/kg/injection, schedule: Q04DX003 (ip), vehicle: saline with Tween-80 97 % of control

O=S(c1cc(Br)ccc1O)c1cc(Br)ccc1O
inactive: [4] 98 % of control | [6] 93 % of control | [7] 90 % of control

CN(C)c1ccc(C(=O)Oc2ccc([N+](=O)[O-])cc2)cc1
inactive: dose: 100.0 mg/kg/injection, schedule: Q01DX009 (ip), vehicle: Klucel (hydroxypropylcellulose) (HPC) 90 % of control | dose: 100.0 mg/kg/injection, schedule: Q04DX003 (ip), vehicle: Klucel (hydroxypropylcellulose) (HPC) 95 % of control | dose: 200.0 mg/kg/injection, schedule: Q01DX009 (ip), vehicle: Klucel (hydroxypropylcellulose) (HPC) 101 % of control | dose: 200.0 mg/kg/injection, schedule: Q04DX003 (ip), vehicle: Klucel (hydroxypropylcellulose) (HPC) 98 % of control | dose: 400.0 mg/kg/injection, schedule: Q01DX009 (ip), vehicle: Klucel (hydroxypropylcellulose) (HPC) 102 % of control | dose: 400.0 mg/kg/injection, schedule: Q04DX003 (ip), vehicle: Klucel (hydroxypropylcellulose) (HPC) 96 % of control

CCCCCCCCCCCC(=O)O
inactive: [1] 92 % of control | [2] 106 % of control | [3] 96 % of control

CCOC(=O)/C=C(/C)C#N
inactive: [4] 103 % of control | [6] 97 % of control | [7] 98 % of control

O=C=Nc1ccc(C(=O)CCl)cc1
inactive: dose: 20.0 mg/kg/injection, schedule: Q01DX009 (ip), vehicle: saline with Tween-80 91 % of control | dose: 40.0 mg/kg/injection, schedule: Q01DX009 (ip), vehicle: saline with Tween-80 91 % of control | dose: 80.0 mg/kg/injection, schedule: Q01DX009 (ip), vehicle: saline with Tween-80 101 % of control | dose: 160.0 mg/kg/injection, schedule: Q01DX009 (ip), vehicle: saline with Tween-80 98 % of control

COc1ccc(CCl)cc1C(=O)O
inactive: dose: 75.0 mg/kg/injection, schedule: Q01DX001 (ip), vehicle: saline 86 % of control | dose: 150.0 mg/kg/injection, schedule: Q01DX001 (ip), vehicle: saline 91 % of control

CN(N)/C(N)=N/N
inactive: [5] 97 % of control | [8] 102 % of control | dose: 400.0 mg/kg/injection, schedule: Q04DX003 (ip), vehicle: saline 97 % of control

CC1(N)CC2CCC1C2 (stereo not given)
inactive: [5] 96 % of control | [8] 92 % of control
